Measured values as given in ChEMBL document CHEMBL4706634, “PEGylated and Acylated Elabela Analogues Show Enhanced Receptor Binding, Prolonged Stability, and Remedy of Acute Kidney Injury” (J Med Chem, 2020).
Active and inactive are the calls of the source. The rule behind the calls is not given here.

Legend:
[1] = Stability in human plasma assessed as half life at 1.56 mM by RP-HPLC analysis; assay type: ADME, cell-free
Mus musculus [2] = test: Reno-protective activity in C57BL/6 mouse model of renal I/R injury assessed as improvement in pathologies in injured kidneys dosed intraperitoneally twice per day for 3 days from day of I/R injury to end of experiment by hematoxylin and eosin staining based assay; assay type: functional, organism-based; settings: time 3.0 day
Mus musculus [3] = test: Reno-protective activity in C57BL/6 mouse model of renal I/R injury assessed as reduction in p-MLK levels dosed intraperitoneally twice per day for 3 days from day of I/R injury to end of experiment by Western blot analysis; assay type: functional, organism-based; settings: time 3.0 day
Mus musculus [4] = test: Reno-protective activity in C57BL/6 mouse model of renal I/R injury assessed as suppression of reduction in cleaved-caspase-8 levels dosed intraperitoneally twice per day for 3 days from day of I/R injury to end of experiment by Western blot analysis; assay type: functional, organism-based; settings: time 3.0 day
Mus musculus [5] = test: Reno-protective activity in C57BL/6 mouse model of renal I/R injury assessed as reduction in fibrosis by measuring collagen deposition dosed intraperitoneally twice per day for 3 days from day of I/R injury to end of experiment by Masson staining based assay; assay type: functional, organism-based; settings: time 3.0 day
Mus musculus [6] = test: Reno-protective activity in C57BL/6 mouse model of renal I/R injury assessed as reduction neutrophil infiltration dosed intraperitoneally twice per day for 3 days from day of I/R injury to end of experiment; assay type: functional, organism-based; settings: time 3.0 day
Apelin receptor = molecular target: T1, Apelin receptor (Rattus norvegicus, UniProt Q9JHG3); test: Agonist activity at APJ receptor in rat NRK-52E cells assessed as effect on cAMP accumulation incubated for 1 hr by cAMP-Glo assay; assay type: functional, cell-based
T1 sequence (Q9JHG3 whole entry): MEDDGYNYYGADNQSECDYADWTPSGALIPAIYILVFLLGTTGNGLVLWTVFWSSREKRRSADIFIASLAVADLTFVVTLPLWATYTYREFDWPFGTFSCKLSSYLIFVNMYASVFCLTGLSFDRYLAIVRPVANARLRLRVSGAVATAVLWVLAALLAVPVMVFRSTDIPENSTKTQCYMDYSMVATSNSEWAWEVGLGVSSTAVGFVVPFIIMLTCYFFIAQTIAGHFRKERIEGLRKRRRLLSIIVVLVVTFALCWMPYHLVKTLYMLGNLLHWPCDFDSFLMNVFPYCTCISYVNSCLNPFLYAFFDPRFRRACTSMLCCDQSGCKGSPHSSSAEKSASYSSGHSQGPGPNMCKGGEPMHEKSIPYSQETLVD

[7] = Stability in mouse plasma assessed as intact peptide level at 1.56 mM incubated for 1 hr by RP-HPLC analysis; assay type: ADME, cell-free; settings: read-out: Stabilty
Mus musculus [8] = test: Reno-protective activity in C57BL/6 mouse model of renal I/R injury assessed as reduction lymphocyte infiltration dosed intraperitoneally twice per day for 3 days from day of I/R injury to end of experiment; assay type: functional, organism-based; settings: time 3.0 day
[9] = Stability in mouse plasma assessed as half life at 1.56 mM by RP-HPLC analysis; assay type: ADME, cell-free
Mus musculus [10] = test: Reno-protective activity in C57BL/6 mouse model of renal I/R injury assessed as reduction in cleaved-caspase-3 levels dosed intraperitoneally twice per day for 3 days from day of I/R injury to end of experiment by Western blot analysis; assay type: functional, organism-based; settings: time 3.0 day
Mus musculus [11] = test: Reno-protective activity in C57BL/6 mouse model of renal I/R injury assessed as reduction in apoptosis by measuring increase in number of TUNEL+ cells dosed intraperitoneally twice per day for 3 days from day of I/R injury to end of experiment by TUNEL assay; assay type: functional, organism-based; settings: time 3.0 day
Mus musculus [12] = test: Reno-protective activity in C57BL/6 mouse model of renal I/R injury assessed as reduction in tubular epithelial cell apoptosis dosed intraperitoneally twice per day for 3 days starting from 6 to 24 hrs post I/R operation by TUNEL assay; assay type: functional, organism-based; settings: time 3.0 day
NRK-52E [13] = test: Cytoprotective activity in rat NRK-52E cells assessed as reduction in cisplatin-induced cell death at 300 pM incubated for 24 hrs; assay type: functional, cell-based
Mus musculus [14] = test: Reno-protective activity in C57BL/6 mouse model of renal I/R injury assessed as reduction in serum BUN level dosed intraperitoneally twice per day for 3 days from day of I/R injury to end of experiment; assay type: functional, organism-based; settings: time 3.0 day
[15] = Half life in mouse at 3 umol/kg, iv by analytical RP-HPLC analysis; assay type: ADME, organism-based; settings: in vivo, dose 3 µmol/kg
Mus musculus [16] = test: Reno-protective activity in C57BL/6 mouse model of renal I/R injury assessed as suppression of renal dysfunction dosed intraperitoneally twice per day for 3 days starting from 6 hrs post I/R operation by hematoxylin and eosin staining based assay; assay type: functional, organism-based; settings: time 3.0 day
Mus musculus [17] = test: Reno-protective activity in C57BL/6 mouse model of renal I/R injury assessed as reduction N-gal mRNA levels dosed intraperitoneally twice per day for 3 days from day of I/R injury to end of experiment by qPCR analysis; assay type: functional, organism-based; settings: time 3.0 day
Mus musculus [18] = test: Reno-protective activity in C57BL/6 mouse model of renal I/R injury assessed as reduction Il6 mRNA levels dosed intraperitoneally twice per day for 3 days from day of I/R injury to end of experiment by qPCR analysis; assay type: functional, organism-based; settings: time 3.0 day
Mus musculus [19] = test: Reno-protective activity in C57BL/6 mouse model of renal I/R injury assessed as reduction in tubular epithelial cell necroptosis dosed intraperitoneally twice per day for 3 days starting from 6 to 24 hrs post I/R operation by TUNEL assay; assay type: functional, organism-based; settings: time 3.0 day
Mus musculus [20] = test: Reno-protective activity in C57BL/6 mouse model of renal I/R injury assessed as reduction Kim1 mRNA expression dosed intraperitoneally twice per day for 3 days starting from 6 to 24 hrs post I/R operation by qPCR analysis; assay type: functional, organism-based; settings: time 3.0 day
NRK-52E [21] = test: Cytoprotective activity in rat NRK-52E cells assessed as reduction in H/R-injury induced cell death at 300 pM incubated for 24 hrs; assay type: functional, cell-based
Mus musculus [22] = test: Reno-protective activity in C57BL/6 mouse model of renal I/R injury assessed as reduction lymphocyte infiltration dosed intraperitoneally twice per day for 3 days starting from 6 to 24 hrs post I/R operation; assay type: functional, organism-based; settings: time 3.0 day
Mus musculus [23] = test: Reno-protective activity in C57BL/6 mouse model of renal I/R injury assessed as reduction Kim1 mRNA levels dosed intraperitoneally twice per day for 3 days from day of I/R injury to end of experiment by qPCR analysis; assay type: functional, organism-based; settings: time 3.0 day
Mus musculus [24] = test: Reno-protective activity in C57BL/6 mouse model of renal I/R injury assessed as suppression of renal tubular damage dosed intraperitoneally twice per day for 3 days starting from 6 to 24 hrs post I/R operation by hematoxylin and eosin staining based assay; assay type: functional, organism-based; settings: time 3.0 day
Mus musculus [25] = test: Reno-protective activity in C57BL/6 mouse model of renal I/R injury assessed as reduction in fibrosis by measuring collagen deposition dosed intraperitoneally twice per day for 3 days starting from 6 to 24 hrs post I/R operation by Masson staining based assay; assay type: functional, organism-based; settings: time 3.0 day
Mus musculus [26] = test: Reno-protective activity in C57BL/6 mouse model of renal I/R injury assessed as reduction neutrophil infiltration dosed intraperitoneally twice per day for 3 days starting from 6 to 24 hrs post I/R operation; assay type: functional, organism-based; settings: time 3.0 day
Mus musculus [27] = test: Reno-protective activity in C57BL/6 mouse model of renal I/R injury assessed as reduction TNF-alpha mRNA levels dosed intraperitoneally twice per day for 3 days from day of I/R injury to end of experiment by qPCR analysis; assay type: functional, organism-based; settings: time 3.0 day
Mus musculus [28] = test: Reno-protective activity in C57BL/6 mouse model of renal I/R injury assessed as reduction in serum creatinine level dosed intraperitoneally twice per day for 3 days from day of I/R injury to end of experiment; assay type: functional, organism-based; settings: time 3.0 day

Row | SMILES | half-life at 1560 µM [1] [h] | Activity (Mus musculus [2]) | Activity (Mus musculus [3]) | Activity (Mus musculus [4]) | Activity (Mus musculus [5]) | Activity (Mus musculus [6]) | EC50 (Apelin receptor) [nM] | remaining at 1 h, 1560 µM [7] [%] | Activity (Mus musculus [8]) | half-life at 1560 µM [9] [h] | Activity (Mus musculus [10]) | Activity (Mus musculus [11]) | further results
1 | CCCCCCCCCCCCCCCC(=O)N[C@@H](CCC(=O)NCCCC[C@H](N)C(=O)N[C@@H](CS)C(=O)N[C@@H](CCSC)C(=O)N1CCC[C@H]1C(=O)N[C@@H](CC(C)C)C(=O)N[C@@H](Cc1c[nH]cn1)C(=O)N[C@@H](CO)C(=O)N[C@@H](CCCNC(=N)N)C(=O)N[C@H](C(=O)N1CCC[C@H]1C(=O)N[C@@H](Cc1ccccc1)C(=O)N1CCC[C@H]1C(N)=O)C(C)C)C(=O)O | 0.63 | Active | Active | Active | Active | Active | 7.98 | 25.8 | Active | 0.5 | Active | Active | 
2 | CCCCCCCCCCCCCCCC(=O)N[C@@H](CCC(=O)N[C@@H](CS)C(=O)N[C@@H](CCSC)C(=O)N1CCC[C@H]1C(=O)N[C@@H](CC(C)C)C(=O)N[C@@H](Cc1c[nH]cn1)C(=O)N[C@@H](CO)C(=O)N[C@@H](CCCNC(=N)N)C(=O)N[C@H](C(=O)N1CCC[C@H]1C(=O)N[C@@H](Cc1ccccc1)C(=O)N1CCC[C@H]1C(N)=O)C(C)C)C(=O)O | 1.97 | Active | Active | Active | Active | Active |  | 63.6 | Active | 1.45 | Active | Active | Activity (Mus musculus [12]): Active; Activity (NRK-52E [13]): Active; Activity (Mus musculus [14]): Active; half-life [15]: 22.6 h; Activity (Mus musculus [16]): Active; Activity (Mus musculus [17]): Active; Activity (Mus musculus [18]): Active; Activity (Mus musculus [19]): Active; Activity (Mus musculus [20]): Active; Activity (NRK-52E [21]): Active; Activity (Mus musculus [22]): Active; Activity (Mus musculus [23]): Active; Activity (Mus musculus [24]): Active; Activity (Mus musculus [25]): Active; Activity (Mus musculus [26]): Active; Activity (Mus musculus [27]): Active; Activity (Mus musculus [28]): Active
3 | CCCCCCCCCCCCCCCC(=O)N[C@@H](CCC(=O)NCCCC[C@H](NC(=O)CCC(=O)N[C@@H](CS)C(=O)N[C@@H](CCSC)C(=O)N1CCC[C@H]1C(=O)N[C@@H](CC(C)C)C(=O)N[C@@H](Cc1c[nH]cn1)C(=O)N[C@@H](CO)C(=O)N[C@@H](CCCNC(=N)N)C(=O)N[C@H](C(=O)N1CCC[C@H]1C(=O)N[C@@H](Cc1ccccc1)C(=O)N1CCC[C@H]1C(N)=O)C(C)C)C(=O)N[C@@H](CS)C(=O)N[C@@H](CCSC)C(=O)N1CCC[C@H]1C(=O)N[C@@H](CC(C)C)C(=O)N[C@@H](Cc1c[nH]cn1)C(=O)N[C@@H](CO)C(=O)N[C@@H](CCCNC(=N)N)C(=O)N[C@H](C(=O)N1CCC[C@H]1C(=O)N[C@@H](Cc1ccccc1)C(=O)N1CCC[C@H]1C(N)=O)C(C)C)C(=O)O | > 24 | inactive |  |  | inactive | inactive | 9.48 | 75.9 | inactive | 5.09 |  |  | 
